Measured values taken from US20220296866A1, “METHODS, DEVICES AND COMPOSITIONS FOR LOCAL DELIVERY” (POLY-MED, INC., priority 2019, published 2022).

How the values were obtained:
[1] = Stability of Mitomycin C in PDLG film (colour change); type: physicochemical; details: evidenced by a change in color from purple to tan
Method: SVG12 (Poly-Med, Inc.) and PDLG (Purasorb PDLG 7507, Corbion) were separately dissolved in chloroform, each at 15% concentration (wt/vol %). Solutions were divided to create different drug-loading solutions according to the associated table. In short, lidocaine (Sigma Aldrich) was added to a solution of SVG12 at a concentration of 134 mg drug per 1 gram of SVG12. Dexamethasone was added to a separate solution of PDLG at a concentration of 29 mg drug per 1 gram of PDLG. Mitomycin C was added to a separate solution of PDLG at a concentration of 6.8 mg drug per 1 gram of PDLG. All solutions were held at room temperature on a roller until completely dissolved. The solutions were cast into thin films using a 25-mil film casting blade and allowed to dry.
Drug-loaded films were cut into rectangles and placed on SVG12-only films. In the case of the dexamethasone- and lidocaine-loaded sample, the cut films were stacked one on top of the other. In the case of mytomycin C-loaded films, 4 drug-loaded films were stacked one on top of the other to increase total delivery payload. On top of the drug-eluting film, a separate SVG12-only film was added which was larger in size. Degradable medical devices and/or compositions were clamped between rubber films between glass plates, clamped to apply pressure, and heated at 50° C. for 3 hours to create a seal between the encapsulation films. […]

[2] = In vitro drug release evaluation of Mitomycin C-eluting devices in artificial urine; type: physicochemical
Method: Devices prepared from earlier examples were characterized for drug release profile in artificial urine to predict in vivo behavior in a human bladder. First, artificial urine was prepared according to ASTM F1828, with a modified buffer. Drug-containing samples were placed in individual 20 mL glass vials and 15 mL artificial urine added to cover the sample. This volume of artificial urine was sufficiently above the Mitomycin C solubility limit for each sample so as not to interfere with release analysis. Filled glass vials were placed in a 37° C. incubator on a 1 Hz orbital bed. As predetermined time points, a total changeover of artificial urine was performed, with the exchanged urine analyzed by HPLC to determine total release of Mitomycin C per time period.
HPLC analysis was performed using a Waters ACQUITY ArcHPLC with C18 column using an isocratic method with 71:29 water:methanol mobile phase. Peaks were compared against a standard curve to determine concentration in the sample, and calculated to total percentage release based on fluid volume and loading of Mitomycin C in the sample. […] A secondary release of drug is anticipated as the OC9 and SVG12 materials experience degradation.

Structure (SMILES): CO[C@@]12[C@H](COC(N)=O)C3=C(C(=O)C(C)=C(N)C3=O)N1C[C@@H]1N[C@@H]12 [Mitomycin C]
- stability of Mitomycin C in polymer [1]: poor stability
- Mitomycin C release compared with the free gel ([2]; OC9/PEG 400 gel placed in the core of the stent, 37° C.): Further attenuation
- Mitomycin C release profile after the initial release ([2]; gel containing 2 parts OC9 and 1 part PEG 400, 37° C., after about 3 days): extended release plateau
- total percentage release of Mitomycin C ([2]; gel containing 2 parts OC9 and 1 part PEG 400, 37° C., over about 3 days): 13%
